{"source": "patent US9932333B2", "about": "“Benzothiazole compound and medicine containing same” (JAPAN SCIENCE AND TECHNOLOGY AGENCY, priority 2014, dated 2018)", "key": {"Aβ1-42 oligomers": {"target": "Aβ1-42 oligomers (Homo sapiens, UniProt P05067)", "sequence (P05067 672-713 limits assumed)": "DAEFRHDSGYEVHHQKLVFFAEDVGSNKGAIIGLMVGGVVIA", "experiment": "Oxygenation of Aβ1-42 oligomer (Example 6)", "format": "biochemical", "conditions": "4 μM; light 10 minutes, room temperature", "protocol": "(3) Compound (1a) (4 μM) was added to each of solutions containing two types of Aβ1-42 oligomers (0.5 μM) prepared by the incubation of Aβ1-42 (20 μM) in a phosphate buffer solution (10 mM, pH 7.4) at 0° C. and room temperature, respectively, for 24 hours, and the mixture was incubated at room temperature for 10 minutes under irradiation with LED (wavelength: 500 nm). Then, the reaction was monitored with a mass spectrometer (MALDI-TOF MS). The intensity ratio of oxygenation (%) was calculated according to (Total intensity of oxygen adducts)/((Intensity of non-oxygen adduct (native))+(Total intensity of oxygen adducts))."}, "methionine enkephalin": {"target": "methionine enkephalin (Homo sapiens, UniProt P01210)", "experiment": "Oxidation reaction of methionine enkephalin (Example 3)", "format": "biochemical", "conditions": "light irradiation 1.5 hours, neutral buffer, 37° C.", "from_the_text": "Then, the reaction was monitored with a mass spectrometer (MALDI-TOF MS) or LC/MS (ESI-Q)."}, "aggregated Aβ1-42 [1]": {"target": "T1, aggregated Aβ1-42 (Homo sapiens, UniProt P05067)", "T1 sequence (P05067 672-713 limits assumed)": "as above", "experiment": "Increase of the intensity ratio of oxygenation of aggregated Aβ1-42 (Example 5)", "format": "biochemical", "conditions": "Aβ1-42 incubated 0, 1, 3, 6 hours; light 10 minutes, room temperature", "protocol": "Then, the reaction was monitored with a mass spectrometer (MALDI-TOF MS).\nIncrease of the intensity ratio of oxygenation (%) was calculated according to (Intensity ratio of oxygenation of aggregated Aβ1-42 (incubated at 37° C. for the predetermined time))−(Intensity ratio of oxygenation of aggregated Aβ1-42 (incubated at 37° C. for 0 hours)).\nThe intensity ratio of oxygenation (%) was calculated according to (Total intensity of oxygen adducts)/((Intensity of non-oxygen adduct (native))+(Total intensity of oxygen adducts))."}, "aggregated Aβ1-42 [2]": {"target": "T1, aggregated Aβ1-42", "experiment": "Binding to aggregated Aβ1-42 by fluorescence assay (Example 5)", "conditions": "10 μM; Aβ1-42 incubated 0, 1, 3, 6 hours", "protocol": "(2) Compound (1a) (10 μM) was added to each of solutions containing 4 types of aggregated Aβ1-42 (0.5 μM) prepared by the incubation of Aβ1-42 (20 μM) in a phosphate buffer solution (10 mM, pH 7.4) at 37° C. for 0, 1, 3, and 6 hours, respectively, followed by the measurement of the fluorescence intensity of compound (1a)."}}}
{"smiles": "C[n+]1c(-c2cc3c4c(c2)CCCN4CCC3)sc2cc(Br)ccc21", "note": "[1a]", "values": [{"measurement": "oxygenation of Aβ1-42 oligomers", "setting": "Aβ1-42 oligomers", "value": "able to catalyze the oxygenation of both of the Aβ1-42 oligomers"}, {"measurement": "oxygenation of methionine enkephalin", "setting": "methionine enkephalin", "value": "≤ 5", "unit": "%"}, {"measurement": "increase of the intensity ratio of oxygenation", "setting": "aggregated Aβ1-42 [1]", "value": "increase of the intensity ratio of oxygenation was observed with increase in the fluorescence intensity of thioflavin T"}, {"measurement": "binding to aggregated Aβ1-42 (fluorescence intensity)", "setting": "aggregated Aβ1-42 [2]", "value": "bind to the cross-β-sheet structure of aggregated Aβ1-42"}]}
